According to patent publication US7851493B2, “Phenyl-1,2,4-oxadiazolone derivatives with phenyl group, processes for their preparation and their use as pharmaceuticals” (Sanofi-Aventis, priority 2005, dated 2010):
Where two headings read alike, the source gives them in different places.

Assays:
human PPARdelta = target: T1, human PPARdelta (Homo sapiens, UniProt Q03181); assay: Cellular PPARdelta assay (human GAL4 luciferase reporter, stably transfected HEK cell line); assay type: cell-based
T1 construct: amino acids S139-Y441; expressed in transfected cells; plasmid pcDNA3
T1 sequence (Q03181 139-441): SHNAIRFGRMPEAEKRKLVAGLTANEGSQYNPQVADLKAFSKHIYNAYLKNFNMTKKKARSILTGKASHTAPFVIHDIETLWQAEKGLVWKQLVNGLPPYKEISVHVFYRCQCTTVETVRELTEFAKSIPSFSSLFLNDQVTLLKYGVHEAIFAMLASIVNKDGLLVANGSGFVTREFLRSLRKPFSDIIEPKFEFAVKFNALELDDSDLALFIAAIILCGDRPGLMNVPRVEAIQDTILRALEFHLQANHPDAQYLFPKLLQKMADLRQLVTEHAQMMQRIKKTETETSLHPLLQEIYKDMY
Protocol: Determination of EC50 Values of PPAR Agonists in the Cellular PPARdelta Assay
(§1) The potency of substances which bind to human PPARdelta and activate it in an agonistic manner is analyzed using a stably transfected HEK cell line (HEK=human embryo kidney) which is referred to here as PPARdelta reporter cell line. In analogy to the assay described for PPARalpha, the PPARdelta reporter cell line also contains two genetic elements, a luciferase reporter element (pdeltaM-GAL4-Luc-Zeo) and a PPARdelta fusion protein (GR-GAL4-humanPPARdelta-LBD) which mediates expression of the luciferase reporter element depending on a PPARdelta ligand. The stably and constitutively expressed fusion protein GR-GAL4-humanPPARdelta-LBD binds in the cell nucleus of the PPARdelta reporter cell line via the GAL4 protein portion to the GAL4 DNA binding motifs 5′-upstream of the luciferase reporter element which is stably integrated in the genome of the cell line. There is only little expression of the luciferase reporter gene in the absence of a PPARdelta ligand if fatty acid-depleted fetal calf serum (cs-FCS) is used in the assay. PPARdelta ligands bind and activate the PPARdelta fusion protein and thereby stimulate expression of the luciferase reporter gene. The luciferase which is formed can be detected by means of chemiluminescence via an appropriate substrate.
Construction of the PPARdelta Reporter Cell Line
The production of the stable PPARdelta reporter cell line is based on a stable HEK-cell clone which was stably transfected with a luciferase reporter element. This step was already described above in the section “construction of the PPARalpha reporter cell line”. In a second step, the PPARdelta fusion protein (GR-GAL4-humanPPARdelta-LBD was stably introduced into this cell clone. For this purpose, the cDNA coding for the N-terminal 76 amino acids of the glucocorticoid receptor (Accession #P04150) was linked to the cDNA section coding for amino acids 1-147 of the yeast transcription factor GAL4 (Accession #P04386). The cDNA of the ligand-binding domain of the human PPARdelta receptor (amino acids S139-Y441; Accession #L07592) was cloned in at the 3′-end of this GR-GAL4 construct. The fusion construct prepared in this way (GR-GAL4-humanPPARdelta-LBD) was recloned into the plasmid pcDNA3 (Invitrogen) in order to enable constitutive expression by the cytomegalovirus promoter. This plasmid was linearized with a restriction endonuclease and stably transfected into the previously described cell clone containing the luciferase reporter element. The resulting PPARdelta reporter cell line which contains a luciferase reporter element and constitutively expresses the PPARdelta fusion protein (GR-GAL4-human PPARdelta-LBD) was isolated by selection with zeocin (0.5 mg/ml) and G418 (0.5 mg/ml).
Assay Procedure and Evaluation
The activity of PPARdelta agonists is determined in a 3-day assay in exact analogy to the procedure already described for the PPARalpha reporter cell line except that the PPARdelta reporter cell line and a specific PPARdelta agonist was used as a standard to control test efficacy.

human PPARalpha = target: T2, human PPARalpha (Homo sapiens, UniProt Q07869); assay: Cellular PPARalpha assay (human GAL4 luciferase reporter, stably transfected HEK cell line); assay type: cell-based
T2 construct: amino acids S167-Y468; expressed in transfected cells; plasmid pcDNA3
T2 sequence (Q07869 167-468): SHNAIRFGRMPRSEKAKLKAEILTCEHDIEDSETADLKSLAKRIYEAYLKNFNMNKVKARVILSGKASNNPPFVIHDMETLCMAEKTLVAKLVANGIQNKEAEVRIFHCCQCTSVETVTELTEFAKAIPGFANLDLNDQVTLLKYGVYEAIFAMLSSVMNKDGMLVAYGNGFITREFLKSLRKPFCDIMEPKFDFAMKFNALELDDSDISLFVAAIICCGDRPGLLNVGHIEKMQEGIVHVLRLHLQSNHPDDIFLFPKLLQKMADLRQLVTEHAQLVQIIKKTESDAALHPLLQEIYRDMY
Protocol: Determination of EC50 Values of PPAR Agonists in the Cellular PPARalpha Assay
as §1, with “PPARalpha” for “PPARdelta”, “It” for “In analogy to the assay described for PPARalpha, the PPARdelta reporter cell line also”, “(GR-GAL4-humanPPARalpha-LBD)” for “(GR-GAL4-humanPPARdelta-LBD)”, “GR-GAL4-humanPPARalpha-LBD” for “GR-GAL4-humanPPARdelta-LBD”, “weak” for “little”, “stimulate the” for “stimulate”
Construction of the PPARalpha Reporter Cell Line
The PPARalpha reporter cell line was prepared in two stages. Firstly, the luciferase reporter element was constructed and stably transfected into HEK cells. For this purpose, five binding sites of the yeast transcription factor GAL4 (Accession #AF264724) were cloned in 5′-upstream of a 68 bp-long minimal MMTV promoter (Accession #V01175). The minimal MMTV promoter section contains a […] and a TATA element in order to enable efficient transcription by RNA polymerase II. The cloning and sequencing of the GAL4-MMTV construct took place in analogy to the description of Sambrook J. et al. (Molecular cloning, Cold Spring Harbor Laboratory Press, 1989). Then the complete Photinus pyralis gene (Accession #15077) was cloned in 3′-downstream of the GAL4-MMTV element. After sequencing, the luciferase reporter element consisting of five GAL4 binding sites, MMTV promoter and luciferase gene was recloned into a plasmid which confers zeocin resistance in order to obtain the plasmid pdeltaM-GAL4-Luc-Zeo. This vector was transfected into HEK cells in accordance with the statements in Ausubel, F. M. et al. (Current protocols in molecular biology, Vol. 1-3, John Wiley & Sons, Inc., 1995).
In a second step, the PPARalpha fusion protein (GR-GAL4-humanPPARalpha-LBD was introduced into the stable cell clone described. For this purpose, initially the cDNA coding for the N-terminal 76 amino acids of the glucocorticoid receptor (Accession #P04150) was linked to the cDNA section coding for amino acids 1-147 of the yeast transcription factor GAL4 (Accession #P04386). The cDNA of the ligand-binding domain of the human PPARalpha receptor (amino acids S167-Y468; Accession #S74349) was cloned in at the 3′-end of this GR-GAL4 construct. The fusion construct prepared in this way (GR-GAL4-humanPPARalpha-LBD) was recloned into the plasmid pcDNA3 (Invitrogen) in order to enable constitutive expression therein by the cytomegalovirus promoter. This plasmid was linearized with a restriction endonuclease and stably transfected into the previously described cell clone containing the luciferase reporter element. The finished PPARalpha reporter cell line which contains a luciferase reporter element and constitutively expresses the PPARalpha fusion protein (GR-GAL4-human PPARalpha-LBD) was isolated by selection with zeocin (0.5 mg/ml) and G418 (0.5 mg/ml).
The activity of PPARalpha agonists is determined in a 3-day assay, which is described below: […]

[1] = diabetic animal model; cited from earlier work
[2] = two weeks clinical trials in healthy volunteers; cited from earlier work
[3] = rhesus and cynomolgus monkeys; cited from earlier work

| EC50 (human PPARdelta) | EC50 (human PPARalpha) | Compound | plasma cholesterol [1] | plasma lipids [2] | plasma lipids [3] |
| --- | --- | --- | --- | --- | --- |
| 0.008 µM | 0.315 µM | CCCCc1nc(-c2ccc(C(F)(F)F)cc2)sc1COc1ccc(-c2noc(=O)[nH]2)c(C)n1 [Example 100, 3-{6-[4-Butyl-2-(4-trifluoromethyl-phenyl)-thiazol-5-ylmethoxy]-2-methyl-pyridin-3-yl}-4H-[1,2,4]oxadiazol-5-one] | – | – | – |
| 0.022 µM | 1.78 µM | COc1cc(OCc2sc(-c3ccc(C(F)(F)F)cc3)nc2CCCS(C)(=O)=O)ccc1-c1noc(=O)[nH]1 [Example 102, 3-{4-[4-(3-Methanesulfonyl-propyl)-2-(4-trifluoromethyl-phenyl)-thiazol-5-ylmethoxy]-2-methoxy-phenyl}-4H-1,2,4-oxadiazol-5-one] | – | – | – |
| 0.008 µM | 0.483 µM | COc1cc(OCc2sc(-c3ccc(C(F)(F)F)cc3)nc2CCCN2CCSCC2)ccc1-c1noc(=O)[nH]1 [Example 103, 3-{2-Methoxy-4-[4-(3-thiomorpholin-4-yl-propyl)-2-(4-trifluoromethyl-phenyl)-thiazol-5-ylmethoxy]-phenyl}-4H-1,2,4-oxadiazol-5-one] | – | – | – |
| – | – | CCCc1c(OCCCOc2ccc(OCC(=O)O)cc2)ccc(C(C)=O)c1O [Example L-165041] | raises | – | – |
| – | – | CCCc1c(OCCCSc2nnc(SCC(=O)O)s2)ccc(C(C)=O)c1O [YM-16638] | – | acts in a similar manner | significantly lowers |
